Test results: patent publication US20050171116A1, “Enhancing the efficacy of tubercular drugs” (priority 2004, published 2005)

Legend:
[1] = tested on: Staphylococci; assay: Antibacterial activity in broth, culture growth after 24 hrs; type: cell-based
[2] = tested on: sensitive strains of Mycobacterium Tuberculosis bacilli (MTB); assay: Antibacterial efficacy in LJ medium, in vitro culture; type: cell-based
[3] = tested on: Pseudomonas; assay: Antibacterial activity in broth, culture growth after 24 hrs; type: cell-based
[4] = tested on: AFB; assay: Sputum AFB test (Ziehl-Neelson stain) in pulmonary tuberculosis patients; type: in vivo, human
Description: Fifty four patients suffering from pulmonary tuberculosis were included in this study. Thirty patients were treated with four anti-tubercular drugs only. Twenty-four patients were treated with four anti-tubercular drugs and antioxidant drugs concomitantly.
Four antitubercular drugs were given by oral route to all 54 patients in doses and frequency as shown below for a period of 60 days. The dosage regime for the anti-microbial drugs is known in the art as “2EHRZ.” It is an oral daily capsule of rifampicin, a tablet of isoniazid, a tablet of Pyrizinamide, and a tablet of ethambutal.
Out of the total test population of fifty-four patients, twenty-four patients received, in addition to the above 2EHRZ regime, Factor Alpha tx for 60 days, administered daily, orally.
In both of the two groups, three sputum samples for each patient were collected and were analyzed for the presence of AFB after 15 days, after 30 days and after sixty days. Analysis was by the Ziehl-Neelson (hot) stain method. The reports were documented as positive for presence of bacilli & negative for absence of bacilli.
The first group (the control group) received Rifampicin, Isoniazid, Ethambutol and Pyrazinamide in daily oral doses mentioned above, on Out Patient Department (OPD) basis for 60 days. […]

[5] = tested on: Escherichia coli; assay: Antibacterial activity in broth, culture growth after 24 hrs; type: cell-based

**Q.** Which antibacterial activity [1] does the source give for Cc1c(C)c2c(c(C)c1O)CC[C@@](C)(CCC[C@H](C)CCC[C@H](C)CCCC(C)C)O2 [Factor Alpha tx, α-tocopherol] here?
**A.** has antibacterial activity

**Q.** What about the antibacterial efficacy [2] of the same compound?
**A.** effective

**Q.** What about the antibacterial activity [3] of the same compound?
**A.** has antibacterial activity

**Q.** What about the “effect on sputum negativity of concurrent administration with routine anti tubercular agents” value [4] of the same compound?
**A.** synergistic effects in augmenting sputum negativity

**Q.** And the antibacterial activity [5]?
**A.** has antibacterial activity
